# Results reported in article PMC10004634 (PLOS ONE, 2023).
# Read-outs that look alike come from different tables or passages of the source.
# Columns and labels:
# Assay in all cases: biochemical
# Parameters in all cases: KINOMEscan scanMAX competition binding, DNA-tagged kinases, qPCR read-out, percent control at 300 nM
# [1] = biological target: TNK2 (Homo sapiens, UniProt Q07912)
# [2] = biological target: CAMK4 (Homo sapiens, UniProt Q16566)
# [3] = biological target: SYK (Homo sapiens, UniProt P43405)
# [4] = biological target: ERN1 (Homo sapiens, UniProt O75460)
# [5] = biological target: T1, VEGFR2 (Homo sapiens, UniProt P35968)
# T1 construct: gene KDR
# T1 sequence (P35968 whole entry): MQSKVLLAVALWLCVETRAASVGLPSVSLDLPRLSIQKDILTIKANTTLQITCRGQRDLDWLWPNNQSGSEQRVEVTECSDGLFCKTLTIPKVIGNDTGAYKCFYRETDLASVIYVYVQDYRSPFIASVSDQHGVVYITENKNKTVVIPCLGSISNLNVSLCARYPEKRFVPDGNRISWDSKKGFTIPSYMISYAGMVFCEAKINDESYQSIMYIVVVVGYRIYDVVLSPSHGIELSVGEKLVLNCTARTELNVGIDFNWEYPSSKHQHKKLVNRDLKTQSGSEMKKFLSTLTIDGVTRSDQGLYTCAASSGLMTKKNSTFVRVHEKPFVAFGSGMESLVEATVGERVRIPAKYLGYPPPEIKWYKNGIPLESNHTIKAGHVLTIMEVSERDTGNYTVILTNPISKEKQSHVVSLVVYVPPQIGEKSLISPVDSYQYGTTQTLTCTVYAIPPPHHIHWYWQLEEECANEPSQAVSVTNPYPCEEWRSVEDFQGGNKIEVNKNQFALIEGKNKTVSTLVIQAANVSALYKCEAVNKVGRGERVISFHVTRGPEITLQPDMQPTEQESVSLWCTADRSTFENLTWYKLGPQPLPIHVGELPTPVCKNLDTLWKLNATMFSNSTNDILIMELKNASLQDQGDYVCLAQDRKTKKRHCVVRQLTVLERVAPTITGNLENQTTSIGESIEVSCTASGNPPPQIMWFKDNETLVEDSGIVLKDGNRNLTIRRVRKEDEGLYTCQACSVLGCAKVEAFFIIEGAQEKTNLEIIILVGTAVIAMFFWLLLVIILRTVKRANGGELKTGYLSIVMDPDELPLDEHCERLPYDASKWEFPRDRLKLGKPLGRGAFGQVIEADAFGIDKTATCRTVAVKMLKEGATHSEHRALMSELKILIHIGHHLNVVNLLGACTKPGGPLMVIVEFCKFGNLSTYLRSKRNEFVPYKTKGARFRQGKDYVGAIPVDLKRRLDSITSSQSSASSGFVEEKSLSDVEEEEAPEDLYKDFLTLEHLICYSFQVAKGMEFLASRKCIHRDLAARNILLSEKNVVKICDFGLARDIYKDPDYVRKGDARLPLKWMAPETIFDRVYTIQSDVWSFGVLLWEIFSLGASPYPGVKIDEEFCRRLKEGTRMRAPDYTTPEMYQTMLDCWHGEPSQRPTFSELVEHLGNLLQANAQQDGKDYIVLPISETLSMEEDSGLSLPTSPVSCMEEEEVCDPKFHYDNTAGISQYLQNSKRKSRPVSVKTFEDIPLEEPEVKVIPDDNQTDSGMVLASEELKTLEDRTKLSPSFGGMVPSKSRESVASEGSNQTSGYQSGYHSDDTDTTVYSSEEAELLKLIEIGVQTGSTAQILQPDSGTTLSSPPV
# [6] = biological target: T2, LATS1 (Homo sapiens, UniProt O95835)
# T2 sequence (O95835 1-1130): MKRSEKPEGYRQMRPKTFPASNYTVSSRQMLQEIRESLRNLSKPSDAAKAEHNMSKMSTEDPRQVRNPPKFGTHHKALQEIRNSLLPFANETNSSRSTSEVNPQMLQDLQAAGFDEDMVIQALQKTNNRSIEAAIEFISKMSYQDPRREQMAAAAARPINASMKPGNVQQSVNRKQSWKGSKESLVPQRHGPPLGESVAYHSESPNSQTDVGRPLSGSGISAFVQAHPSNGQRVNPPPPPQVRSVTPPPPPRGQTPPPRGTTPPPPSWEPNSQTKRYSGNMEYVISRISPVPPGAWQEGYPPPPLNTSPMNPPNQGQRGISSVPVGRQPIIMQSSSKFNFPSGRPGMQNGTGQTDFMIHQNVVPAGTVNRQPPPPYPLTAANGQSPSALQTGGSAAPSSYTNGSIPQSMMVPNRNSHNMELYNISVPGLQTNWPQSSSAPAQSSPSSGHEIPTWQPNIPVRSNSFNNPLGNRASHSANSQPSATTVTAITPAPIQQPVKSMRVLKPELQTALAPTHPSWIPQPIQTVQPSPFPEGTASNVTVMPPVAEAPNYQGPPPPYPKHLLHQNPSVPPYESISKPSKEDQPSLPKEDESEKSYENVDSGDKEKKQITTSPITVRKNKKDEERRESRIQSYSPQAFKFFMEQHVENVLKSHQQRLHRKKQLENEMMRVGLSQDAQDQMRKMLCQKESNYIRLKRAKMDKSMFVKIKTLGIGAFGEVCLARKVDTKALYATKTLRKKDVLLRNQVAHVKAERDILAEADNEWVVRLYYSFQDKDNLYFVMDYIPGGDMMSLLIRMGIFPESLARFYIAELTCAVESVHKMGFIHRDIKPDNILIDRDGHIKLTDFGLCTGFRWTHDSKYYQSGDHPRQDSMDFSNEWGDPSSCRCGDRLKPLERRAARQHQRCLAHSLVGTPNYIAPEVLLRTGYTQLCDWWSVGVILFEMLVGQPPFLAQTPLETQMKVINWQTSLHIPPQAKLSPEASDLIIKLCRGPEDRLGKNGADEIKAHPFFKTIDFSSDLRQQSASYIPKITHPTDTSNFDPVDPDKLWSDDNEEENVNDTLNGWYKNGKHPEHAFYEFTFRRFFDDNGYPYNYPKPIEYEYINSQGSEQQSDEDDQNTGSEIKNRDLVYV
# [7] = biological target: RET(V804M) (Homo sapiens, UniProt P07949, V804M)
# RET(V804M), sequence (P07949 whole entry V804M): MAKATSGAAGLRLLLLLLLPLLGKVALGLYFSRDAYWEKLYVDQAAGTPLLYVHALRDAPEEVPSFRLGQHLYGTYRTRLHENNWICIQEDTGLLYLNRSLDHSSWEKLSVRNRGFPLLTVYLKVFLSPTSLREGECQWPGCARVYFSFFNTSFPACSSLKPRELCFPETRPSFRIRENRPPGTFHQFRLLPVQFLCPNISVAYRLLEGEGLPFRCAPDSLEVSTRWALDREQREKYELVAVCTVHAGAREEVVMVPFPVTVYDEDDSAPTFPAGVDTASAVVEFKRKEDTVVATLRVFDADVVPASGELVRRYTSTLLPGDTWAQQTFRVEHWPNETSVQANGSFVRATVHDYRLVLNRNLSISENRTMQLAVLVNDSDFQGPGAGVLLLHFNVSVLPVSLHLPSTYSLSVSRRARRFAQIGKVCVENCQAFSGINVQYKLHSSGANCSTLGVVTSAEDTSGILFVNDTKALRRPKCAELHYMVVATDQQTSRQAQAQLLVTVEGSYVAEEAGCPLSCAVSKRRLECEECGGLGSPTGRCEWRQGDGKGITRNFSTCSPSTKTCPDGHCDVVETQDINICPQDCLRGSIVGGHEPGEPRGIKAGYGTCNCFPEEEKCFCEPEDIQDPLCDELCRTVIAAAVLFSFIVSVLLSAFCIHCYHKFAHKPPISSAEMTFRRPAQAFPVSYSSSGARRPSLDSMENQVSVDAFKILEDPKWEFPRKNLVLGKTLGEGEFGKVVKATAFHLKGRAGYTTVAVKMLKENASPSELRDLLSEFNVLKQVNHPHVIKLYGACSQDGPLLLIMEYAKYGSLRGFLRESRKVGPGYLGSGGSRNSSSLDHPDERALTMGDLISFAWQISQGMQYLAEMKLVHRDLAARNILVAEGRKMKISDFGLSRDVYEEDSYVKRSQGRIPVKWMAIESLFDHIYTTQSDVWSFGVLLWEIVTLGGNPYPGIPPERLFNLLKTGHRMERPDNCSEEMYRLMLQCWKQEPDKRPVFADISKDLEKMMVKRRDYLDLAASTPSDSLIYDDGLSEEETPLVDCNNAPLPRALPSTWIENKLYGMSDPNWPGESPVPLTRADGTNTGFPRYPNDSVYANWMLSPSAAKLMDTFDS
# [8] = biological target: MAP3K1 (Homo sapiens, UniProt Q13233)
# MAP3K1, sequence (Q13233 whole entry): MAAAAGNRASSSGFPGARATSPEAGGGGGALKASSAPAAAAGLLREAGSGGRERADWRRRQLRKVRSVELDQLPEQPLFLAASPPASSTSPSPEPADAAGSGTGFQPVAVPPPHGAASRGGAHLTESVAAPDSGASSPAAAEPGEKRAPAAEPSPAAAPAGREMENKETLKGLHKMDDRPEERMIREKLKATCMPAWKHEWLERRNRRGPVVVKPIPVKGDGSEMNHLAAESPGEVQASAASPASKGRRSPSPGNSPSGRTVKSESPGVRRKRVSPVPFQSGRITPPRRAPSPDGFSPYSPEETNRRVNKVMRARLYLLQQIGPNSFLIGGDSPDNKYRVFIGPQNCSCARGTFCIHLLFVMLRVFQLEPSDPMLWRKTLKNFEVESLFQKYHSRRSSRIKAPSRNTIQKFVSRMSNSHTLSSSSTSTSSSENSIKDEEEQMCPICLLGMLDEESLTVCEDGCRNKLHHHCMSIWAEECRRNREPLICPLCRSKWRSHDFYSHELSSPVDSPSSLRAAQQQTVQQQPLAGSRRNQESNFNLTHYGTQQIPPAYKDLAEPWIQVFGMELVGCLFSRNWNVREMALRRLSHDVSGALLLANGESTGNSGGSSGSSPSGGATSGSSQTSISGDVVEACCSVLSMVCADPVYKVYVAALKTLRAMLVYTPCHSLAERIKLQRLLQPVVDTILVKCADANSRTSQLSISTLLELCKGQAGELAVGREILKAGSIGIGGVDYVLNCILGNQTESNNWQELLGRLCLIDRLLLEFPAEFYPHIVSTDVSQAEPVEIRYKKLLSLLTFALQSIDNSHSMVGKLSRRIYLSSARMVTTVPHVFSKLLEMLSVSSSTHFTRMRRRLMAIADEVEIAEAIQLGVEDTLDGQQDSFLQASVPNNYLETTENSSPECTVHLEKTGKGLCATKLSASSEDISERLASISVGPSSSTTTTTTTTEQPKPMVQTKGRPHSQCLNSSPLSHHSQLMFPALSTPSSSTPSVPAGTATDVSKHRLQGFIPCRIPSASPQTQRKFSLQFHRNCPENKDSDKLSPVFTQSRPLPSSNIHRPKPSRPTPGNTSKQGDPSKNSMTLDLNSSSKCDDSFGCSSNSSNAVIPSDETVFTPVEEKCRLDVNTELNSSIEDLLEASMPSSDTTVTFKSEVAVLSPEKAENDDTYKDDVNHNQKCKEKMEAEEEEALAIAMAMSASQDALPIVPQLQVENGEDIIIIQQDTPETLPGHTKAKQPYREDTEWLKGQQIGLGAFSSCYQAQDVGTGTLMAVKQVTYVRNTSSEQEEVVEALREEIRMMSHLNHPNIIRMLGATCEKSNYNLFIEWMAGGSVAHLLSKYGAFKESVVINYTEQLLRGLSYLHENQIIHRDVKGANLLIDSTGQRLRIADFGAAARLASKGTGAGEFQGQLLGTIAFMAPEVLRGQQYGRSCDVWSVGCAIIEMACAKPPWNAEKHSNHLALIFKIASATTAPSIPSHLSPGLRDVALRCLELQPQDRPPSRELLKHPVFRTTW
# [9] = read-out: Percent control / Tirabrutinib
# [10] = read-out: Percent control / Zanubrutinib
# [11] = read-out: Percent control / Acalabrutinib
# [12] = read-out: Percent control / Ibrutinib
# TNK2, sequence (Q07912 whole entry): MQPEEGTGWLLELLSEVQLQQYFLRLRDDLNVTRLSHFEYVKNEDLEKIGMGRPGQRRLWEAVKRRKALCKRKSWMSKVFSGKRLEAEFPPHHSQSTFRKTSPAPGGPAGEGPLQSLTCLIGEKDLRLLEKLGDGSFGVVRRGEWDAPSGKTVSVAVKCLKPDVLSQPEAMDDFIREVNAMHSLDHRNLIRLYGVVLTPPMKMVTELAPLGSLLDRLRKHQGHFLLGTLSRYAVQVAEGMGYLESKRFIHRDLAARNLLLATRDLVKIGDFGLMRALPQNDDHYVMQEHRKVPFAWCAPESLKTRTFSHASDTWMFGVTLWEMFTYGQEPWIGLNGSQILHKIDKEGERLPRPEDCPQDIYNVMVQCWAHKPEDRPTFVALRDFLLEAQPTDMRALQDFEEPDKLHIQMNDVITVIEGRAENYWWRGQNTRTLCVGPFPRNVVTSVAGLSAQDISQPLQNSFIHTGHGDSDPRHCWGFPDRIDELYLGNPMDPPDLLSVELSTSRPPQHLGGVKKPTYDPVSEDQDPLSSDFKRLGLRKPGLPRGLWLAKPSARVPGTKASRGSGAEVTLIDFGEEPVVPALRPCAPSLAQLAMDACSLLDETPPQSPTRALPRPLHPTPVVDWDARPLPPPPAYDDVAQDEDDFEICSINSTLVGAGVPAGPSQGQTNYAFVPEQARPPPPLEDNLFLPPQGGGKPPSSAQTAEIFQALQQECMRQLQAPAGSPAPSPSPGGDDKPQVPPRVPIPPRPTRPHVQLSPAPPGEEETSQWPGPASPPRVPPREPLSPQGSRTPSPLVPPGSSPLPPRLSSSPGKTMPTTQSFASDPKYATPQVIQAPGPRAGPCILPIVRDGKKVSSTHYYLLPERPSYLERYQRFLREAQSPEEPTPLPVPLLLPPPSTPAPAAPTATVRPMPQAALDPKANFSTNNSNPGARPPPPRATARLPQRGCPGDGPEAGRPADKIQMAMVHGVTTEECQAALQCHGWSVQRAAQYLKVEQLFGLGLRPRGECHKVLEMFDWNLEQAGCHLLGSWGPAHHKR
structure (smiles),measurement,setting,value
CC#CC(=O)N1CC[C@@H](n2c(=O)n(-c3ccc(Oc4ccccc4)cc3)c3c(N)ncnc32)C1 [Tirabrutinib],remaining binding at 0.3 µM,[1]; [9],93%
same,remaining binding at 0.3 µM,[2]; [9],82%
same,remaining binding at 0.3 µM,[3]; [9],93%
same,remaining binding at 0.3 µM,[4]; [9],87%
C=CC(=O)N1CCC([C@@H]2CCNc3c(C(N)=O)c(-c4ccc(Oc5ccccc5)cc4)nn32)CC1 [Zanubrutinib],remaining binding at 0.3 µM,[5]; [10],100%
same,remaining binding at 0.3 µM,[6]; [10],72%
same,remaining binding at 0.3 µM,[1]; [10],90%
same,remaining binding at 0.3 µM,[7]; [10],94%
same,remaining binding at 0.3 µM,[2]; [10],91%
same,remaining binding at 0.3 µM,[8]; [10],84%
same,remaining binding at 0.3 µM,[3]; [10],81%
same,remaining binding at 0.3 µM,[4]; [10],100%
CC#CC(=O)N1CCC[C@H]1c1nc(-c2ccc(C(=O)Nc3ccccn3)cc2)c2c(N)nccn12 [Acalabrutinib],remaining binding at 0.3 µM,[5]; [11],98%
same,remaining binding at 0.3 µM,[6]; [11],79%
same,remaining binding at 0.3 µM,[7]; [11],85%
same,remaining binding at 0.3 µM,[8]; [11],96%
same,remaining binding at 0.3 µM,[3]; [11],89%
same,remaining binding at 0.3 µM,[4]; [11],96%
C=CC(=O)N1CCC[C@@H](n2nc(-c3ccc(Oc4ccccc4)cc3)c3c(N)ncnc32)C1 [Ibrutinib],remaining binding at 0.3 µM,[5]; [12],95%
same,remaining binding at 0.3 µM,[6]; [12],83%
same,remaining binding at 0.3 µM,[1]; [12],48%
same,remaining binding at 0.3 µM,[7]; [12],94%
same,remaining binding at 0.3 µM,[2]; [12],96%
same,remaining binding at 0.3 µM,[8]; [12],86%
same,remaining binding at 0.3 µM,[4]; [12],89%
